The text below walks through data of US9969741B2, “Pyrazolotriazines as inhibitors of nucleases” (MASARYKOVA UNIVERZITA, priority 2014, dated 2018).

Each structure is given as a SMILES string.

Assay [1] addresses T1, MRE11 (Saccharomyces cerevisiae, UniProt P32829).
T1 construct: made in house; host or cells: S. cerevisiae protease-deficient strain BJ5464
T1 sequence (P32829 1-692): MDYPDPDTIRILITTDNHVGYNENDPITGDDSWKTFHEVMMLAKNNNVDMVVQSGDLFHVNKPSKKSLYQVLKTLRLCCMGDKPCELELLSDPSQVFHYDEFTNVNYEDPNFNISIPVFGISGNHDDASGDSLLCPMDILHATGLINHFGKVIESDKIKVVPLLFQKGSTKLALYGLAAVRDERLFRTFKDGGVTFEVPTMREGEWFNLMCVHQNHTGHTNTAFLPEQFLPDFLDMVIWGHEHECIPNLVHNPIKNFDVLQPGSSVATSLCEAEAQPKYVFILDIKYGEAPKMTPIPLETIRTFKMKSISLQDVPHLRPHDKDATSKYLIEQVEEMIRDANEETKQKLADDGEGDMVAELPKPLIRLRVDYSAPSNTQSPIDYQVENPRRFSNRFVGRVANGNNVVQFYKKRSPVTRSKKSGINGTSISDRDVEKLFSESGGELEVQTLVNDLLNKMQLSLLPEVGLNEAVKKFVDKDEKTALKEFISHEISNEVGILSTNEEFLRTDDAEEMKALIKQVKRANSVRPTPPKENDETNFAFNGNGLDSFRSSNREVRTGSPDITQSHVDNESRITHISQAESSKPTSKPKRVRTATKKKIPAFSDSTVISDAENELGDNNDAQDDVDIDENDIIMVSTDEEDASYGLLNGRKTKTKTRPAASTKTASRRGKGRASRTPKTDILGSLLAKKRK
The experiment in a line: Nuclease inhibition assay, MRE11 (5′ flap fluorescent DNA substrate, gel readout). It is filed as biochemical, yeast. Particulars: 5 nM enzyme, 5 nM 5′ flap substrate, 15 min at 30° C. An excerpt:
(§1) In vitro assays were used for the determination of compound's IC50 values for inhibition of individual nucleases, i.e., MUS81/EME1, FEN1, EXO1, and MRE11. To generate IC50 values, concentration of compound was plotted against relative nuclease activity (in %). The dose-response curves were generated from inhibition data, from 5 point serial dilutions of inhibitory compounds, each in triplicate and fitted to a standard sigmoid curve. IC50 values were derived by standard nonlinear regression analysis.
(§2) All tested compounds were diluted in 100% DMSO (dimethylsulfoxide) to prepare working stocks with different concentrations. To keep the DMSO concentration constant in every reaction, always 0.5 μl of the compound stock was added to the reaction buffer. The reaction buffer differs depending on the enzyme tested. Also concentration of the compounds in the reaction depends on the particular enzyme, since the inhibitory effect of the compounds vary between the enzymes. Nevertheless, always doubling dilutions in the range 200-0.8 μM was used. The compound was added as the first component in the reaction buffer, followed by the enzyme addition. […]
(§3) For this experiment we prepared short fluorescently labeled oligonucleotide-based DNA substrates with specific structures reflecting the biochemical activities of tested individual nucleases (Table 1). […] For visualization, each substrate was labeled by fluorescent dye (fluorescein), which can be detected in the gel using appropriate imaging system (FLA-9000, Fuji) with filters for particular wavelengths (excitation: 485 nm, emission: 535 nm).
(§4) Nuclease assays were performed in reaction buffer specific for particular enzyme: MUS81/EME1 (50 mM Tris pH=7.5, 5 mM MgCl2, 1 mM DTT a 100 μg/ml BSA), MRE11 (30 mM Bis-Tris pH=7.0, 50 μg/ml BSA, 1 mM DTT a 250 μM MnCl2), EXO1 and FEN1 (50 mM Tris pH=7.5, 1 mM MgCl2, 1 mM DTT a 100 μg/ml BSA). […] Fluorescently labeled DNA was detected by FLA-9000 scanner (Fuji) and the result was evaluated using Multi-Gauge V3.2 software (Fuji). […]

Assay [2] addresses FEN1 (Homo sapiens, UniProt P39748). The assay is described as follows: Nuclease inhibition assay, FEN1 (5′ flap fluorescent DNA substrate, gel readout). It is filed as biochemical. Particulars: 10 nM enzyme, 5 nM 5′ flap substrate, 15 min at 30° C.
From the text: as §1, §2, §3, §4

Chain of FEN1 (P39748 whole entry, species assumed): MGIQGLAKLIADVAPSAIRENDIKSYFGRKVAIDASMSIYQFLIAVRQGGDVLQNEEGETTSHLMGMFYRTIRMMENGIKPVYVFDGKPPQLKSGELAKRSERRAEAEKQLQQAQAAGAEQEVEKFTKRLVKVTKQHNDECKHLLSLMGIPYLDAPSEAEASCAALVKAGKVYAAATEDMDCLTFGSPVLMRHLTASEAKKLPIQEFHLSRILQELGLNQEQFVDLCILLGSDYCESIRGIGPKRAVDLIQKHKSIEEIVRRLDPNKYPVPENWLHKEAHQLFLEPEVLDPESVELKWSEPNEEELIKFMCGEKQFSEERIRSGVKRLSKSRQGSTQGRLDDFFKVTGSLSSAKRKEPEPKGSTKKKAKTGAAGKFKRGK

Broadly, the IC50 is the concentration that inhibits the measured activity by half. As to `CCc1nn2c(N)c(-c3nc4ccccc4[nH]3)nnc2c1-c1ccc(F)cc1` [Preparative Example 5A], the IC50 in assay [1] and in assay [2] was over 50 µM throughout.

On to `Nc1c(-c2nc3ccccc3[nH]2)nnc2cc(-c3ccccc3)nn12` [Preparative Example 5C], for which the IC50 in assay [1] and in assay [2] was over 50 µM each time.

As to `Nc1c(-c2nc3ccccc3[nH]2)nnc2cc(-c3cccc4ccccc34)nn12` [Preparative Example 5K], the IC50 in assay [1] is under 50 µM; in assay [2] it was over 50 µM.
